{"source": "patent US20260125351A1", "about": "“COMPOUND FOR INDUCING EXPRESSION OF ANTI-AGING GENE KLOTHO AND USE THEREOF” (KLOTHO SCIENCES, priority 2019, published 2026)", "key": {"[1]": {"tested_on": "promoter of the human klotho gene", "assay": "Luciferase expression experiment, klotho promoter reporter (1.7 kbp or 240 bp) in RPTEC cells", "type": "cell-based", "conditions": "5 μM, 24 hours, reporter with klotho promoter to 1.7 kbp or 240 bp, among Comparative Examples 1 to 4 (FIG. 1)", "description": "(§1) In order to evaluate whether the klotho gene was expressed by the evaluation of luciferase activity, human renal proximal tubule epithelial cells (RPTECs) (ATCC CRL-4031), which are epithelial cells of the proximal tubule of the human kidneys, were purchased from Lonza, USA and used.\n(§2) For culturing, a Renal Epithelial Growth Medium (REGM™) Bullet kit, also manufactured by the same Lonza company, was used, and the cells were cultured under conditions of 37° C. and 5% CO2. As a plasmid for luciferase expression, a plasmid in which the promoter site of a human KL (klotho) gene was disposed to regulate the expression of a firefly luciferase gene was used.\nThe plasmid was incorporated into cells using an X-treme GENE transfection reagent from Roche. The activity of luciferase expressed in cells was measured using a Dual-Luciferase reporter assay system manufactured by Promega. After the cultured cells were treated with each compound at an indicated concentration for 24 hours, the activity of luciferase was measured. It is indirectly shown that the expression of the klotho gene may be increased when the activity of luciferase is high. […]"}, "[2]": {"tested_on": "klotho (KL) gene", "assay": "Quantitative evaluation of klotho (KL) gene expression level using real-time PCR in RPTEC cells", "type": "cell-based, human", "conditions": "RPTEC cells treated for 6 hours; real-time PCR (FIG. 4)", "description": "For RNA extraction from RPTEC cells, which are epithelial cells of the proximal tubule of the human kidneys, treated with the compounds of Comparative Example 1 and Examples 1 and 2 for 6 hours, an RNeasy kit from Qiagen Inc. was used. The results of preparing cDNA from extracted RNA using a Superscript II kit from Thermo Fisher Scientific. Inc. and performing the quantitative evaluation using Taqman Gene Expression assays from Applied Biosystems as a klotho (KL) gene-specific kit are illustrated in FIG. 4."}, "[3]": {"tested_on": "promoter of the human klotho gene", "assay": "Luciferase expression experiment, reporter gene pHKP-luc (promoter up to -2.1 kb upstream) in RPTECs", "type": "cell-based", "description": "as §1, §2\nThe plasmid was incorporated into cells using an X-treme GENE transfection reagent from Roche. The activity of luciferase expressed in cells was measured using a Dual-Luciferase reporter assay system manufactured by Promega. After the cultured cells were treated with each compound at an indicated concentration for 24 hours, the activity of luciferase was measured. It is indirectly shown that the expression of the klotho gene may be increased when the activity of luciferase is high.\nThe results of confirming the expression of a reporter gene by treating RPTECs, which are epithelial cells of the proximal tubule of the human kidneys, with Examples 1 to 6 at concentrations of 0.5, 1 and 5 μM and Comparative Example 1 at a concentration of 5 μM and using a reporter gene (pHKP-luc) including a promoter included up to −2.1 kb upstream of the human klotho gene are illustrated in FIGS. 2 and 3."}, "[4]": {"tested_on": "klotho protein", "assay": "Klotho protein expression level in cisplatin-treated HK-2 cells", "type": "cell-based, human", "conditions": "cisplatin (20 μM) disease model, KS1 3 μM, after 24 hours (FIG. 7B)", "description": "As in the protocol in FIG. 7A, a disease model was made by treating HK-2 cells (human renal cells) with cisplatin (20 μM), and then treated with a KS1 compound (Example 10) (3 μM). After 24 hours, the expression degree of the klotho protein was confirmed by obtaining the cells."}, "[5]": {"tested_on": "spontaneous hypertensive rat (SHR)", "assay": "Effect of reducing hypertension in spontaneous hypertensive rat", "type": "in vivo", "conditions": "SHR rats", "description": "A 6-week-old rat male WKY/lzm was used as a normal control, and a 6-week-old rat male SHR/lzm was used as an experimental group in which hypertension was induced. All animals were purchased from the Central Laboratory Animal, and experiments were conducted at the rearing facility in a re-entry area within the Experimental Animal Center of the Osong Medical Innovation Foundation. The […] were quarantined and acclimatized for 7 days after receipt, and the health of the animals was observed during this period.\nGroup separation was performed on the end day of instrument acclimatization (group separation day) among animals having no general symptoms. […]\n• (1) A test material and a positive control material were dissolved in an excipient in a liquid amount of 20 mIJkg according to the corresponding concentration. • (2) After quarantine and acclimatization, the excipient, the test material, and the positive control material were administered after group separation based on the blood pressure and body weight of animals. • (3) All administration groups were administered orally 7 times/week for 8 weeks using a 3 mL syringe with a liquid amount of 20 mL/kg based on the body weight measured once a week. […]\nOn days 36 and 64 after administration of the drug, blood pressure was measured by placing the animals in a blood pressure measuring frame and allowing the tails to come out. […]"}, "[6]": {"tested_on": "unilateral ureter obstruction model", "assay": "Unilateral ureter obstruction (UUO) model", "type": "in vivo", "conditions": "UUO mice, 20 mg/kg/day into the abdominal cavity", "description": "In a unilateral ureter obstruction model, 5-week-old male […] mice were used. After the right ureter was tied with a thread to create a unilateral ureter obstruction model, the KS1 compound (20 mg/kg/day) was injected into the abdominal cavity daily starting 24 hours later. After that, samples were collected by sacrificing the mice on days 7 and 14 and tested (FIG. 8A)."}, "[7]": {"tested_on": "klotho (KL) gene", "assay": "Quantitative evaluation of klotho (KL) gene expression level using general PCR in RPTEC cells", "type": "cell-based, human", "parameters": "dose or concentration left out as unconfirmed", "conditions": "general PCR (FIG. 5)", "description": "After RPTEC cells, which are epithelial cells of the proximal tubule of the human kidneys, were each treated with the compounds of Examples 7 to 10 at […] for 6 hours. RNA was extracted from the cells, and cDNA was prepared from the extracted RNA using a Superscript II kit from Thermo Fisher Scientific, Inc., and then general PCR was performed.\nInformation on the primers used in the experiment is as follows.\nThe DNA amplified by PCR was confirmed by staining with ethidium bromide after electrophoresis on an agarose gel, and the amounts of DNA in the band were quantitatively compared using the SPEedyQuant program, and are illustrated in FIG. 5."}, "[8]": {"tested_on": "Human renal proximal tubule epithelial cells (RPTECs)", "assay": "Inhibition of cellular senescence, senescence β-galactosidase staining", "type": "cell-based", "description": "Human renal proximal tubule epithelial cells (RPTECs), which are renal tubular epithelial cells, were purchased from Lonza, and as a culture medium, a REGM kit supplied by the same company was also used. Cells were cultured in a 37° C. incubator under 5% CO2 conditions. When the cells reached 80% saturation, the cells were treated with trypsin, transferred to a new culture dish, and subcultured. A compound was attached to the medium such that the final concentration was 2.5 μM, and a constant concentration was maintained by adding the compound thereto during each passage. […] As for the cells inducing senescence, cells subcultured 17 times (#17) in total were used.\n“Senescence β-galactosidase staining kit” from Cell Signaling Technology, Inc. was used to confirm the degree of senescence of cells. On the day of the experiment, a staining solution was added to the cells, and the stained cells were confirmed 8 hours later. The number of stained cells was confirmed and expressed as a ratio among the total number of cells observed under a 200-fold microscope, and the number of stained cells at three different locations per sample was counted and averaged. As the senescence of the cells progresses, the expression of the enzyme β-galactosidase increases, and therefore the stained cells may be determined as more senescent cells than the non-stained cells."}, "[9]": {"tested_on": "human kidney-2 (HK2) cells", "assay": "Toxicity test, EZ-Cytox kit", "type": "cell-based", "conditions": "12.5 μM or 25 μM, 24 hours", "description": "Cultured human kidney-2 (HK2) cells were treated with Comparative Example 1, Example 2 and Examples 9 to 10 at a concentration of 25 μM or 12.5 μM, and after 24 hours, cytotoxicity was measured using an EZ-Cytox kit."}, "[10]": {"conditions": "RPTECs, Examples at 0.5, 1 and 5 μM, Comparative Example 1 at 5 μM, pHKP-luc (FIG. 2)"}}, "data": [{"smiles": "O=C(Nc1ccccc1Cl)c1c[nH]c2ccccc12", "note": "[Comparative Example 1, N-(2-chlorophenyl)-1H-indole-3-carboxamide]", "values": [{"measurement": "luciferase activity", "setting": "[1]", "value": "highest"}]}, {"smiles": "Cc1ccc2oc(Nc3ccc(Cl)c(Cl)c3)nc2c1", "note": "[Example 2]", "values": [{"measurement": "mRNA expression level of the klotho (KL) gene", "setting": "[2]", "value": "at a level similar to that of Comparative Example 1"}, {"measurement": "expression of the reporter gene", "setting": "[3]; RPTEC cells, 5 μM, pHKP-luc (FIG. 3)", "value": "at a level similar to that of Comparative Example 1"}, {"measurement": "expression of the reporter gene", "setting": "[3]; [10]", "value": "at a level similar to that of Comparative Example 1"}]}, {"smiles": "N.N.[Cl][Pt][Cl]", "note": "[cisplatin, reference compound]", "values": [{"measurement": "expression of the klotho protein", "setting": "[4]", "value": "decreased"}]}, {"smiles": "O=C(Nc1nc2ccccc2o1)c1ccc([N+](=O)[O-])cc1Cl", "note": "[Example 1, N-(benzo[d]oxazol-2-yl)-2-chloro-4-nitrobenzamide]", "values": [{"measurement": "expression of the reporter gene", "setting": "[3]; [10]", "value": "at a level similar to that of Comparative Example 1"}]}, {"smiles": "Fc1ccc(Nc2nc3ccccc3o2)cc1F", "note": "[Example 10, N-(3,4-difluorophenyl)benzo[d]oxazol-2-amine]", "values": [{"measurement": "expression of the klotho protein", "setting": "[4]", "value": "increased"}, {"measurement": "blood pressure reduction effect on co-administration with losartan", "setting": "[5]; KS1 co-administered with losartan, versus each drug administered independently (FIG. 14)", "value": "better blood pressure reduction effect"}, {"measurement": "systolic pressure", "setting": "[5]; oral 20 mg/kg/day for 8 weeks, measured days 36 and 64 (FIG. 14)", "value": "remarkably reduced"}, {"measurement": "renal hypertrophy (kidney size)", "setting": "[6]; days 7 and 14 (FIG. 8B)", "value": "no difference in size"}, {"measurement": "nuclear and cytoplasmic changes, H&E staining", "setting": "[6]; one-week and two-week samples (FIG. 9)", "value": "large reduction in tissue destruction"}, {"measurement": "klotho protein expression", "setting": "[6]; one-week sample (FIG. 12)", "value": "increased"}, {"measurement": "fibrosis progression, Sirius Red staining", "setting": "[6]; versus UUO model not treated with KS1 (FIG. 10)", "value": "fibrosis occurred less"}, {"measurement": "degree of apoptosis, TUNEL staining", "setting": "[6]; versus UUO model not treated with KS1 (FIG. 11)", "value": "remarkably reduced"}, {"measurement": "expression level of MMP-9 protein (inflammation marker)", "setting": "[6]; week 1 and week 2 (FIG. 13)", "value": "remarkably reduced"}, {"measurement": "expression level of the klotho (KL) gene relative to Comparative Example 1", "setting": "[7]", "value": "about 10 times"}, {"measurement": "cells stained (senescence β-galactosidase)", "setting": "[8]; RPTECs subcultured 17 times, 2.5 μM in medium, DMSO about 90% (FIG. 15)", "value": "about 70%"}, {"measurement": "decrease in degree of senescence compared to DMSO", "setting": "[8]; RPTECs, 17 passages, 2.5 μM", "value": "about 20%"}, {"measurement": "improvement of toxicity compared to Comparative Example 1", "setting": "[9]", "value": "≥ 20", "unit": "%"}, {"measurement": "cytotoxicity", "setting": "[9]; EZ-Cytox (FIG. 6)", "value": "least toxicity"}]}]}
